Test results as given in ChEMBL document CHEMBL1125860 (J Med Chem, 1991).
Each block holds one molecule with its values, some of them ahead of it. Activity calls are given as the source filed them. The calls are words filed in the database; no cut-off is given here.

How the values were obtained:
[1] = molecular target: Aldo-keto reductase family 1 member B1 (Bos taurus) (UniProt P16116); test: In vitro % decrease of aldose reductase measured in isolated partially purified bovine lens preparations at 10e-7 M concentration
Rattus norvegicus [2] = test: In vivo inhibition of galactitol accumulation in diaphragm of rat at 50 mg/kg/day; Not significant; assay type: functional, organism-based
Rattus norvegicus [3] = test: In vivo inhibition of galactitol accumulation in sciatic nerves of rat at 50 mg/kg/day; Not significant; assay type: functional, organism-based; conditions: Sciatic nerve
Rattus norvegicus [4] = organism: Rattus norvegicus; test: In vitro inhibition of sorbitol accumulation was measured in rat sciatic nerves incubated in the presence of 50 mM glucose at 10e-5 M concentration; assay type: functional, Sciatic nerve
Rattus norvegicus [5] = organism: Rattus norvegicus; test: In vitro inhibition of sorbitol accumulation was measured in rat sciatic nerves incubated in the presence of 50 mM glucose at 10e-6 M concentration; assay type: functional, Sciatic nerve
Rattus norvegicus [6] = test: In vivo inhibition of galactitol accumulation in diaphragm of rat at 26 mg/kg/day; assay type: functional
Rattus norvegicus [7] = test: In vivo inhibition of galactitol accumulation in sciatic nerves of rat at 26 mg/kg/day; Not significant; assay type: functional, organism-based; conditions: Sciatic nerve
Rattus norvegicus [8] = test: In vivo inhibition of galactitol accumulation in diaphragm of rat at 48 mg/kg/day; assay type: functional
Rattus norvegicus [9] = test: In vivo inhibition of galactitol accumulation in sciatic nerves of rat at 48 mg/kg/day; assay type: functional; conditions: Sciatic nerve
Rattus norvegicus [10] = test: In vivo inhibition of galactitol accumulation in sciatic nerves of rat at 10 mg/kg/day; assay type: functional; conditions: Sciatic nerve
Rattus norvegicus [11] = test: In vivo inhibition of galactitol accumulation in diaphragm of rat at 10 mg/kg/day; assay type: functional
[12] = molecular target: Aldo-keto reductase family 1 member B1 (Bos taurus) (UniProt P16116); test: In vitro % decrease of aldose reductase was measured in isolated partially purified bovine lens preparations at 10e-7 M concentration; Not active
Rattus norvegicus [13] = test: In vivo inhibition of galactitol accumulation in diaphragm of rat at 48 mg/kg/day; Not significant; assay type: functional, organism-based
Rattus norvegicus [14] = test: In vivo inhibition of galactitol accumulation in sciatic nerves of rat at 24 mg/kg/day; Not significant; assay type: functional, organism-based; conditions: Sciatic nerve
Rattus norvegicus [15] = test: In vivo inhibition of galactitol accumulation in diaphragm of rat at 24 mg/kg/day; assay type: functional
Rattus norvegicus [16] = test: In vivo inhibition of galactitol accumulation in diaphragm of rat at 53 mg/kg/day; assay type: functional
Rattus norvegicus [17] = test: In vivo inhibition of galactitol accumulation in sciatic nerves of rat at 53 mg/kg/day; Not significant; assay type: functional, organism-based; conditions: Sciatic nerve
Rattus norvegicus [18] = test: In vivo inhibition of galactitol accumulation in sciatic nerves of rat at 26 mg/kg/day; assay type: functional; conditions: Sciatic nerve
Rattus norvegicus [19] = test: In vivo inhibition of galactitol accumulation in diaphragm of rat at 27 mg/kg/day; assay type: functional
Rattus norvegicus [20] = test: In vivo inhibition of galactitol accumulation in sciatic nerves of rat at 27 mg/kg/day; Not significant; assay type: functional, organism-based; conditions: Sciatic nerve
Rattus norvegicus [21] = test: In vivo inhibition of galactitol accumulation in sciatic nerves of rat at 48 mg/kg/day; Not significant; assay type: functional, organism-based; conditions: Sciatic nerve
Rattus norvegicus [22] = test: In vivo inhibition of galactitol accumulation in diaphragm of rat at 47 mg/kg/day; Not significant; assay type: functional, organism-based
Rattus norvegicus [23] = test: In vivo inhibition of galactitol accumulation in sciatic nerves of rat at 47 mg/kg/day; Not significant; assay type: functional, organism-based; conditions: Sciatic nerve
Rattus norvegicus [24] = test: In vivo inhibition of galactitol accumulation in sciatic nerves of rat at 2 mg/kg/day; Not significant; assay type: functional, organism-based; conditions: Sciatic nerve
Rattus norvegicus [25] = test: In vivo inhibition of galactitol accumulation in diaphragm of rat at 5 mg/kg/day; assay type: functional
Rattus norvegicus [26] = test: In vivo inhibition of galactitol accumulation in sciatic nerves of rat at 5 mg/kg/day; assay type: functional; conditions: Sciatic nerve
Rattus norvegicus [27] = test: In vivo inhibition of galactitol accumulation in diaphragm of rat at 49 mg/kg/day; assay type: functional
Rattus norvegicus [28] = test: In vivo inhibition of galactitol accumulation in sciatic nerves of rat at 49 mg/kg/day; assay type: functional; conditions: Sciatic nerve
Rattus norvegicus [29] = test: In vivo inhibition of galactitol accumulation in sciatic nerves of rat at 25 mg/kg/day; assay type: functional; conditions: Sciatic nerve
Rattus norvegicus [30] = test: In vivo inhibition of galactitol accumulation in sciatic nerves at 5 mg/kg/day; Not significant; assay type: functional, organism-based; conditions: Sciatic nerve
Rattus norvegicus [31] = test: In vivo inhibition of galactitol accumulation in diaphragm of rat at 25 mg/kg/day; assay type: functional
[32] = molecular target: Aldo-keto reductase family 1 member B1 (Bos taurus) (UniProt P16116); test: In vitro % decrease of […] reductase was measured in isolated partially purified bovine lens preparations at 10e-7 M concentration

inhibition [1]: 69%
Structure (SMILES): COc1ccc2c(C(=O)N(C)CC(=O)O)c(SC)ccc2c1C(F)(F)F
inhibition (Rattus norvegicus [2]): inactive | inhibition (Rattus norvegicus [3]): inactive | Inhibition (Rattus norvegicus [4]): 60% | Inhibition (Rattus norvegicus [5]): 41%

inhibition [1]: 84%
Structure (SMILES): COc1ccc2c(C(=S)N(C)CC(=O)O)c(OCc3ccccc3)ccc2c1C(F)(F)F
inhibition in vivo at 26 mg/kg/day (Rattus norvegicus [6]): 80% | inhibition (Rattus norvegicus [7]): inactive

Structure (SMILES): COC(=O)N(CC(=O)O)C(=O)c1cccc2c(C(F)(F)F)c(OC)ccc12
inhibition in vivo at 48 mg/kg/day (Rattus norvegicus [8]): 54% | inhibition in vivo at 48 mg/kg/day (Rattus norvegicus [9]): 70% | inhibition in vivo at 10 mg/kg/day (Rattus norvegicus [10]): 86% | inhibition in vivo at 10 mg/kg/day (Rattus norvegicus [11]): 76% | Inhibition (Rattus norvegicus [4]): 58%

inhibition [12]: inactive
Structure (SMILES): CCCCc1ccc2c(C(F)(F)F)c(OC)ccc2c1C(=O)N(C)CC(N)=O
inhibition (Rattus norvegicus [13]): inactive | inhibition in vivo at 48 mg/kg/day (Rattus norvegicus [9]): 30%

inhibition [1]: 89%
Structure (SMILES): COc1ccc2c(C(=S)N(C)CC(=O)O)c(Oc3ccccc3)ccc2c1C(F)(F)F
inhibition (Rattus norvegicus [14]): inactive | inhibition in vivo at 24 mg/kg/day (Rattus norvegicus [15]): 83%

inhibition [1]: 91%
Structure (SMILES): COc1ccc2c(C(F)(F)F)c(OC)ccc2c1C(=S)N(C)CC(=O)O
inhibition in vivo at 26 mg/kg/day (Rattus norvegicus [6]): 71% | inhibition (Rattus norvegicus [7]): inactive

inhibition [1]: 93%
Structure (SMILES): COc1ccc2c(C(=S)N(C)CC(=O)O)cc(-c3ccccc3)cc2c1C(F)(F)F
inhibition in vivo at 53 mg/kg/day (Rattus norvegicus [16]): 82% | inhibition (Rattus norvegicus [17]): inactive | Inhibition (Rattus norvegicus [4]): 87% | Inhibition (Rattus norvegicus [5]): 36%

inhibition [1]: 86%
Structure (SMILES): COc1ccc2c(C(=S)N(C)CC(=O)O)c(OCC(F)(F)F)ccc2c1C(F)(F)F
inhibition in vivo at 26 mg/kg/day (Rattus norvegicus [6]): 88% | inhibition in vivo at 26 mg/kg/day (Rattus norvegicus [18]): 33%

inhibition [1]: 83%
Structure (SMILES): COC(=O)N(CC(=O)O)C(=O)c1c(OCC(F)(F)F)ccc2c(C(F)(F)F)c(OC)ccc12
inhibition in vivo at 27 mg/kg/day (Rattus norvegicus [19]): 49% | inhibition (Rattus norvegicus [20]): inactive | Inhibition (Rattus norvegicus [4]): 64% | Inhibition (Rattus norvegicus [5]): 36%

inhibition [12]: inactive
Structure (SMILES): COc1ccc2c(C(=O)N(C)CC(N)=O)c(C(C)(C)C)ccc2c1C(F)(F)F
inhibition (Rattus norvegicus [13]): inactive | inhibition (Rattus norvegicus [21]): inactive

inhibition [1]: 84%
Structure (SMILES): CCOC(=O)N(CC(=O)O)C(=O)c1cc(Br)cc2c(Br)c(OC)ccc12
inhibition (Rattus norvegicus [22]): inactive | inhibition (Rattus norvegicus [23]): inactive

inhibition [1]: 52%
Structure (SMILES): COc1ccc2c(C(=O)N(C)CC(=O)O)c(Cc3ccccc3)ccc2c1C(F)(F)F
inhibition (Rattus norvegicus [2]): inactive | inhibition (Rattus norvegicus [3]): inactive

inhibition [1]: 64%
Structure (SMILES): COc1ccc2c(C(=O)N(C)CC(=O)O)ccc(F)c2c1C(F)(F)F
inhibition in vivo at 26 mg/kg/day (Rattus norvegicus [6]): 15% | inhibition (Rattus norvegicus [7]): inactive

Structure (SMILES): COc1ccc2c(C(=S)N(C)CC(N)=O)c(F)ccc2c1C(F)(F)F
inhibition (Rattus norvegicus [24]): inactive | inhibition in vivo at 5 mg/kg/day (Rattus norvegicus [25]): 80% | inhibition in vivo at 10 mg/kg/day (Rattus norvegicus [10]): 54% | inhibition in vivo at 5 mg/kg/day (Rattus norvegicus [26]): 33%

inhibition [1]: 83%
Structure (SMILES): COC(=O)N(CC(=O)O)C(=O)c1c(OC)ccc2c(C(F)(F)F)c(OC)ccc12
inhibition in vivo at 49 mg/kg/day (Rattus norvegicus [27]): 33% | inhibition in vivo at 49 mg/kg/day (Rattus norvegicus [28]): 36%

Structure (SMILES): COc1ccc2c(C(=S)N(C)CC(=O)O)c(F)ccc2c1C(F)(F)F
inhibition in vivo at 25 mg/kg/day (Rattus norvegicus [29]): 92% | inhibition (Rattus norvegicus [30]): inactive | inhibition in vivo at 25 mg/kg/day (Rattus norvegicus [31]): 93%

inhibition [1]: 32%
Structure (SMILES): COc1ccc2c(C(=O)N(C)CC(=O)O)c(C(F)(F)F)ccc2c1C(F)(F)F
inhibition in vivo at 48 mg/kg/day (Rattus norvegicus [8]): 52% | inhibition (Rattus norvegicus [21]): inactive | Inhibition (Rattus norvegicus [4]): 65% | Inhibition (Rattus norvegicus [5]): 35%

inhibition [32]: 70%
Structure (SMILES): COc1ccc2c(C(=S)N(C)CC(=O)O)c(C)ccc2c1C(F)(F)F
inhibition in vivo at 26 mg/kg/day (Rattus norvegicus [6]): 91% | inhibition (Rattus norvegicus [7]): inactive
